From article PMC4446623, “Tackling the Cytotoxic Effect of a Marine Polycyclic Quinone-Type Metabolite: Halenaquinone Induces Molt 4 Cells Apoptosis via Oxidative Stress Combined with the Inhibition of HDAC and Topoisomerase Activities” (Marine Drugs, 2015)

Experiments:
topo IIα = biological target: T1, topo IIα (Homo sapiens, UniProt P11388); assay: cell-free relaxation assay of supercoiled pHOT1 plasmid DNA with purified human topo II, agarose gel; assay type: biochemical
T1 construct: gene TOP2A
T1 sequence (P11388 whole entry): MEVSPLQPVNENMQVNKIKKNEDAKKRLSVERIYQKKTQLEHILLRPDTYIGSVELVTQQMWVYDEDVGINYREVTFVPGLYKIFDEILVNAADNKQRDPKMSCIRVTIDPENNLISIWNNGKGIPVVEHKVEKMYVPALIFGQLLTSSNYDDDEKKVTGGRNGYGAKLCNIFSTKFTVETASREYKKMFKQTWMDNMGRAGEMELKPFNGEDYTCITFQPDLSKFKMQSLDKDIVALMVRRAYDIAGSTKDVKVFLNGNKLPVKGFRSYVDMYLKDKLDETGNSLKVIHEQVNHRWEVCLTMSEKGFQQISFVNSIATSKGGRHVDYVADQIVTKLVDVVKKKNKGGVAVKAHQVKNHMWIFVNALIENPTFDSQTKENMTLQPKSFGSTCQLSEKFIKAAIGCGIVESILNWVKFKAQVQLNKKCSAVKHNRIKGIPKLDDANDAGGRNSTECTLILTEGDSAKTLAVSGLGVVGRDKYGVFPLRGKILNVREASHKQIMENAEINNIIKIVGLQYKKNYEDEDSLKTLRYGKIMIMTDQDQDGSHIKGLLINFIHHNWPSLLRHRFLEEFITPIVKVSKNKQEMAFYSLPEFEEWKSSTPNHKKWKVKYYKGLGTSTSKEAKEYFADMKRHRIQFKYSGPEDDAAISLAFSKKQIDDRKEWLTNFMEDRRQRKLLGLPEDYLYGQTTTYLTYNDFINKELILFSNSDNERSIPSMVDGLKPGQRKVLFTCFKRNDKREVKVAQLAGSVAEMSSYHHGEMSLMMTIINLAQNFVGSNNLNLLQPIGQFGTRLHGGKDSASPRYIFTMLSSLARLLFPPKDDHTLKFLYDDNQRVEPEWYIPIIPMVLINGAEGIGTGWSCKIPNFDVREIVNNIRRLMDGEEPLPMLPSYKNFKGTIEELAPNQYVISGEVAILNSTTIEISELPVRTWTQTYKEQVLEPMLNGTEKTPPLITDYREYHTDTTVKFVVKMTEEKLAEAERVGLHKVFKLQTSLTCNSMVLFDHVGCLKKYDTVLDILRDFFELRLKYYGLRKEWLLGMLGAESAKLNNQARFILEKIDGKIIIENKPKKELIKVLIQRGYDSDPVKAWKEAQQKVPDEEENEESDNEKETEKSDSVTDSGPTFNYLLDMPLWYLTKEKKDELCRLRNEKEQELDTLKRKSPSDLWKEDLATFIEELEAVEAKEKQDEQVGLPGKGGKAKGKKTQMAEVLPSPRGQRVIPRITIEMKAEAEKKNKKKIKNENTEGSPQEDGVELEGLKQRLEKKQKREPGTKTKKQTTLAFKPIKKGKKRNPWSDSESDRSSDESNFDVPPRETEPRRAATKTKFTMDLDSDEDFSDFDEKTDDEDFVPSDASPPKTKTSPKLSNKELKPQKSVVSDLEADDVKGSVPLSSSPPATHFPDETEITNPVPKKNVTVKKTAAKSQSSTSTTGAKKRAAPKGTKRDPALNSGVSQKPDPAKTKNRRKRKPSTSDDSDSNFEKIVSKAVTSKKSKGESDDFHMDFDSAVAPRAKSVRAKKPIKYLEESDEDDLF

topo I = biological target: T2, topo I (Homo sapiens, UniProt P11387); assay: cell-free relaxation assay of supercoiled pHOT1 plasmid DNA with purified human topo I, agarose gel; assay type: biochemical
T2 construct: gene TOP1
T2 sequence (P11387 2-765): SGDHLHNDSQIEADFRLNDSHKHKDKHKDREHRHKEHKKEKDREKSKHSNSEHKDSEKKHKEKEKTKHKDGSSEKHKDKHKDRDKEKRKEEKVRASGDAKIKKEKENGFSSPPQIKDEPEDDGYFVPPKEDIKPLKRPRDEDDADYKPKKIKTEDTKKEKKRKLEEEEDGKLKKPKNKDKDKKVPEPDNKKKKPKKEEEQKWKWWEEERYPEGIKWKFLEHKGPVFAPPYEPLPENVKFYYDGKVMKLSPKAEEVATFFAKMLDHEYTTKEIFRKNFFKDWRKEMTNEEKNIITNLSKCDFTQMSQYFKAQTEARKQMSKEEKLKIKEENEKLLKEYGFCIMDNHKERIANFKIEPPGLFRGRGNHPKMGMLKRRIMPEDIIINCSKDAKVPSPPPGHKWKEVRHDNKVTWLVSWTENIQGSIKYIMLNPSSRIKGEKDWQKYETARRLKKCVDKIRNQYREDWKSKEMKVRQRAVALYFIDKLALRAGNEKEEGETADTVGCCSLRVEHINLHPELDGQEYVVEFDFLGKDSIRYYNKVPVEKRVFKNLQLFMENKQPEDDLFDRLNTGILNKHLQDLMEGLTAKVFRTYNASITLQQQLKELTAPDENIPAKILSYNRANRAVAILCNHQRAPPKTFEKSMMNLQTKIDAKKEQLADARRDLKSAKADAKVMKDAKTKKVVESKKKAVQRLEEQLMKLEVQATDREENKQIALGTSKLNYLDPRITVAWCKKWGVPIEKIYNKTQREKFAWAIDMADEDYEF

C[C@@]12CCC(=O)c3coc(c31)C(=O)c1cc3c(cc12)C(=O)C=CC3=O [HQ, halenaquinone]
IC50 (topo IIα): 16.6 nM | IC50 (topo I): 3580 nM
